Source: patent US20150337351A1, “METHODS OF MICROORGANISM IMMOBILIZATION” (priority 2014, published 2015)

Tests used:
Format in all cases: cell-based
[1] = tested on: Staphylococcus aureus (SA); test: Clone growth of captured, MHA-immobilized cells from simulated blood, darkfield digital microscopy; conditions: 6 μg/mL FOX; 3 hours (0, 60, 120, 180 minutes); 35° C.
Description: Simulated blood specimens were used. Simulated blood specimens were produced by spiking SA, PA, and non-target bacilli species isolates into 10 mL volumes of blood from two short-fill CPD blood bank bags. A total of 29 simulated blood samples were produced, each having a microorganism concentration of approximately 5 CFU/mL of bacterial target species, confirmed by quantitative culture. Spiked isolates used to produce the simulated blood samples included 14 Staphylococcus aureus (SA), 3 Pseudomonas aeruginosa (PA), and 12 non-target Gram-negative bacilli species. Twenty additional control samples were produced which contained no spikes. Each sample was diluted with 30 mL of modified tryptic soy broth medium to promote growth, followed by a 4-hour incubation at 35° C. Following the 4-hour incubation period, samples were centrifuged briefly. The resulting microorganism cells pellets were resuspended in an electrokinetic concentration buffer to produce 1 mL samples for introduction into the detection system. Microorganism samples comprising 20 μL aliquots were pipetted into 14 microchannel flowcells. A 5-minute low-voltage electrokinetic capture was performed to concentrate the microorganisms on to a detection surface associated with each flowcell. […] Controls included quantitative culturing, disk diffusion tests for isolate resistance phenotype, and 20 blood samples without spikes.

[2] = tested on: Pseudomonas aeruginosa IHMA 519749 (Paer); test: Biosensor mixed species diffusion assay (immobilized cells, microscopic detection), growth of resistant strain; conditions: for Paer growth?: MEM 4 (4 μg/mL), MHA 0.850% agar, 4 hours
Description: (§1) A mixed species diffusion variation of Hodge test using a biosensor with immobilized cells and microscopic detection was performed using the same bacterial strains. Heavy suspensions of Ecol and Paer were prepared in L-histidine buffer from fresh overnight blood agar plates. Heavy suspensions were diluted in normal saline to produce 0.5 McFarland suspensions, noting the volumes of each suspension required and using the same volumes to produce 10^8 cfu/mL suspensions of each strain in L-histidine. These suspensions were further diluted to create […] and 2×10^5 cfu/mL suspensions for heavy and moderate density working samples. The working samples were then diluted 1:1 in 2 mM L-DOPA for EKC.
(§2) The strains were next introduced to a biosensor for EKC, immobilization, and detection. Paer suspensions were loaded first, placing 5 uL in the exit port side (to maintain the resistant Paer isolate in one half of each channel) of each biosensor flowcell channel to cover one half of the flowcell. Six flowcells were loaded with each concentration. EKC was performed for 5 minutes at 1.5V, and then all flowcells were washed with two aliquots of 160 μL 1 mM L-DOPA (from the entry port). Ecol suspensions were next loaded, introducing 20 μL of cells suspension from the entry port to cover the full flowcell. Six flowcells were loaded with each concentration. EKC was performed for 5 minutes at 1.5V, and all flowcells washed with 160 μL of 1/10 MHB. The manner in which the cells were introduced and captures created a site comprising Ecol cells that were distal from any Paer cells (i.e., on the entry port side of the flowcell), as well as Ecol cells that were proximal to the Paer cells (i.e., on the exit port side of the flowcell).
(§3) Antibiotic media were prepared for immobilization and inhibition testing as follows. […] An immobilization medium source plate was prepared in the detection system and maintained at 45° C. The source plate wells were loaded with 20 μL of the 10× stocks and MHB without antibiotic for growth controls. The sample cassette was placed in the detection system and maintained at 40° C. A 180 uL volume of 0.944% MHA was added to each well of the source plate and mixed, and 100 uL of pre-immobilization immobilizing medium (with an agar concentration of 0.850%) was withdrawn and introduced to a flowcell in accordance with the experimental design. The loaded biosensor was allowed to equilibrate for 5 minutes, and was then removed and cooled for 5 minutes to induce the agar immobilizing agent to change to solid phase. The flowcell ports were then sealed, and growth, imaging, and analysis were performed, with examination of each flowcell for growth of Paer, examination of the distal portion of each flowcell for growth of Ecol in the absence of Paer (distal sensitivity), and examination of the proximal portion of each flowcell for growth of Ecol in the presence of Paer (proximal resistance), indicative of a positive mixed species resistance due to diffusion of metallo-beta-lactamase.
(§4) In order to test for enzyme-mediated cross-species resistance effects, a method for was devised to test a sensitive strain, Escherichia coli ATCC 25922 (Ecol), in the presence of a resistant strain, Pseudomonas aeruginosa IHMA 519749 (Paer) in the immobilized format. The method involved first immobilizing the resistant strain on the surface of a portion of each test flowcell of the cassette (approximately half) and then immobilizing the sensitive (sentinel) strain on the surface of the full flowcell including the area containing the resistant strain. This strategy provides an internal control for treatment effects on the sentinel strain in an area far from the resistant strain along with an area where close-field effects can be observed in the same flowcell. […]

[3] = tested on: Escherichia coli ATCC 25922 (Ecol); test: Biosensor mixed species diffusion assay (immobilized cells, microscopic detection), growth of sentinel strain; conditions: for Mixed species resistance factor diffusion? / Ecol growth in distal site? / Ecol growth in proximal site?: MEM 4 (4 μg/mL); for Ecol growth in distal site?: distal from Paer; for Ecol growth in proximal site?: proximal to Paer
Description: as §1, §2, §3, §4

[4] = Flowcell 9, Ecol 10^6/Paer 10^6
[5] = Flowcell 10, Ecol 10^6/Paer 10^5
[6] = Flowcell 11, Ecol 10^5/Paer 10^6
[7] = Flowcell 12, Ecol 10^5/Paer 10^5
[8] = Flowcell 9, Ecol 10^6/Paer 10^6, 4 hours
[9] = Flowcell 10, Ecol 10^6/Paer 10^5, 4 hours
[10] = Flowcell 11, Ecol 10^5/Paer 10^6, 4 hours
[11] = Flowcell 12, Ecol 10^5/Paer 10^5, 4 hours

SMILES	SA clone growth in immobilizing medium with antibiotic (darkfield images, FIG. 2B) [1]	Paer growth? [2, 4]	Paer growth? [2, 5]	Paer growth? [2, 6]	Paer growth? [2, 7]	Paer growth morphology and rate under antibiotic vs growth control ([2]; MEM at 4 μg/mL, immobilized in MHA, proximal site)	Mixed species resistance factor diffusion? [3, 4]	Ecol growth in distal site? [3, 8]	Ecol growth in proximal site? [3, 8]	Mixed species resistance factor diffusion? [3, 5]	Ecol growth in distal site? [3, 9]	Ecol growth in proximal site? [3, 9]	Mixed species resistance factor diffusion? [3, 6]	Ecol growth in distal site? [3, 10]	Ecol growth in proximal site? [3, 10]	Mixed species resistance factor diffusion? [3, 7]	Ecol growth in distal site? [3, 11]	Ecol growth in proximal site? [3, 11]	Ecol growth and morphology under antibiotic (time-lapse images) ([3]; MEM at 4 μg/mL, immobilized in MHA, 4 hours)
CO[C@@]1(NC(=O)Cc2cccs2)C(=O)N2C(C(=O)O)=C(COC(N)=O)CS[C@@H]21 [FOX, cefoxitin]	growth indicating a methicillin-resistant phenotype	–	–	–	–	–	–	–	–	–	–	–	–	–	–	–	–	–	–
C[C@@H](O)[C@H]1C(=O)N2C(C(=O)O)=C(S[C@@H]3CN[C@H](C(=O)N(C)C)C3)[C@H](C)[C@H]12 [MEM, meropenem]	–	Yes	Yes	Yes	Yes	same morphology and growth rate as the growth control condition	No	No	No	No	No	No	No	No	No	No	No	No	slight growth or elongation of the single cell with later fading and in many colonies complete lysis
